Measurements taken from ChEMBL document CHEMBL4422652, “Synthesis and biological evaluation of novel oleanolic acid analogues as potential α-glucosidase inhibitors” (Eur J Med Chem, 2019).
Active and inactive are the calls of the source. The rule behind the calls is not given here.

Experiments:
[1] = Inhibition of baker's yeast alpha-glucosidase using phenol-alphaD-glycopyranoside as substrate preincubated for 10 mins followed by substrate addition and measured after 30 mins; parameters: species or system Saccharomyces cerevisiae
NIH3T3 = assay: Cytotoxicity against mouse 3T3 cells assessed as growth inhibition measured after 48 hrs by MTT assay; type: cell-based; conditions: NIH3T3, 48 h
[2] = Non-competitive inhibition of baker's yeast alpha-glucosidase using varying levels of phenol-alphaD-glycopyranoside as substrate preincubated for 10 mins followed by substrate addition and measured after 30 mins by double reciprocal plot analysis; parameters: species or system Saccharomyces cerevisiae
Mus musculus [3] = assay: Hypoglycemic activity in streptozocin-induced diabetic Kunming mouse assessed as reduction in blood glucose AUC at 50 mg/kg, po treated 30 mins prior to glucose challenge and measured up to 210 mins by OGTT; type: functional, organism-based
[4] = Toxicity in streptozocin-induced diabetic Kunming mouse assessed as effect on body weight at 50 mg/kg, po administered once daily for 18 days measured every 6 days starting from day 1 during compound dosing; type: organism-based; conditions: in vivo
Mus musculus [5] = assay: Hypoglycemic activity in streptozocin-induced diabetic Kunming mouse assessed as reduction in blood glucose level at 50 mg/kg, po measured at 2 hrs post dose; type: functional, organism-based
Mus musculus [6] = assay: Hypoglycemic activity in streptozocin-induced diabetic Kunming mouse assessed as reduction in blood glucose level at 50 mg/kg, po treated 30 mins prior to glucose challenge and measured up to 210 mins by OGTT; type: functional, organism-based
Mus musculus [7] = assay: Hypoglycemic activity in streptozocin-induced diabetic Kunming mouse assessed as blood glucose level at 50 mg/kg, po administered once daily for 18 days measured on day 12 post dose (reference value: 23.27 +/- 1.03 mM); type: functional
Mus musculus [8] = assay: Hypoglycemic activity in streptozocin-induced diabetic Kunming mouse assessed as reduction in blood glucose level at 50 mg/kg, po measured at 9 hrs post dose; type: functional, organism-based
Saccharomyces cerevisiae = assay: Non-competitive inhibition of baker's yeast alpha-glucosidase assessed as Km for substrate using varying levels of phenol-alphaD-glycopyranoside as substrate preincubated for 10 mins followed by substrate addition and measured after 30 mins by double reciprocal plot analysis
Mus musculus [9] = assay: Hypoglycemic activity in streptozocin-induced diabetic Kunming mouse assessed as blood glucose level at 50 mg/kg, po administered once daily for 18 days measured on day 6 post dose (reference value: 22.31 +/- 1.05 mM); type: functional
Mus musculus [10] = assay: Hypoglycemic activity in streptozocin-induced diabetic Kunming mouse assessed as blood glucose level at 50 mg/kg, po administered once daily for 18 days measured on day 12 post dose (reference value: 23.09 +/- 1.45 mM); type: functional
Mus musculus [11] = assay: Hypoglycemic activity in streptozocin-induced diabetic Kunming mouse assessed as blood glucose level at 50 mg/kg, po administered once daily for 18 days measured on day 1 post dose (reference value: 18.86 +/- 0.7 mM); type: functional

SMILES: Cc1ccccc1/C=C1\C[C@]2(C)[C@H]3C[C@@H](F)[C@]45OC(=O)[C@@]6(CCC(C)(C)C[C@H]64)CC[C@@]5(C)[C@]3(C)CC[C@H]2C(C)(C)C1=O
- IC50 [1]: 1.58 µM

SMILES: COc1ncc(F)cc1/C=C1\C[C@]2(C)[C@H]3C[C@@H](F)[C@]45OC(=O)[C@@]6(CCC(C)(C)C[C@H]64)CC[C@@]5(C)[C@]3(C)CC[C@H]2C(C)(C)C1=O
- IC50 [1]: 2.05 µM

SMILES: CC1(C)CC[C@@]23CC[C@]4(C)[C@](OC2=O)([C@H](F)C[C@@H]2[C@@]5(C)C/C(=C\c6ccc(Br)cc6F)C(=O)C(C)(C)[C@@H]5CC[C@]24C)[C@@H]3C1
- IC50 [1]: 1.17 µM

SMILES: CC1(C)CC[C@@]23CC[C@]4(C)[C@](OC2=O)([C@H](F)C[C@@H]2[C@@]5(C)C/C(=C\c6ccccc6)C(=O)C(C)(C)[C@@H]5CC[C@]24C)[C@@H]3C1
- IC50 [1]: 3.43 µM

SMILES: CC1(C)CC[C@@]23CC[C@]4(C)[C@](OC2=O)([C@H](F)C[C@@H]2[C@@]5(C)C/C(=C\c6cccc(Br)c6)C(=O)C(C)(C)[C@@H]5CC[C@]24C)[C@@H]3C1
- IC50 [1]: 1.86 µM

SMILES: CC1(C)CC[C@@]23CC[C@]4(C)[C@](OC2=O)([C@H](F)C[C@@H]2[C@@]5(C)C/C(=C\c6ccc(F)cc6)C(=O)C(C)(C)[C@@H]5CC[C@]24C)[C@@H]3C1
- IC50 [1]: 1.51 µM

SMILES: CC1(C)CC[C@@]23CC[C@]4(C)[C@](OC2=O)([C@H](F)C[C@@H]2[C@@]5(C)C/C(=C\c6ccccc6F)C(=O)C(C)(C)[C@@H]5CC[C@]24C)[C@@H]3C1
- IC50 [1]: 1.74 µM

SMILES: CC1(C)CC[C@@]23CC[C@]4(C)[C@](OC2=O)([C@H](F)C[C@@H]2[C@@]5(C)C/C(=C\c6ccc(-n7cncn7)cc6)C(=O)C(C)(C)[C@@H]5CC[C@]24C)[C@@H]3C1
- IC50 [1]: 3.18 µM

SMILES: CC1(C)CC[C@@]23CC[C@]4(C)[C@](OC2=O)([C@H](F)C[C@@H]2[C@@]5(C)C/C(=C\c6cnccn6)C(=O)C(C)(C)[C@@H]5CC[C@]24C)[C@@H]3C1
- IC50 [1]: 3.14 µM

SMILES: Cc1cccc(/C=C2\C[C@]3(C)[C@H]4C[C@@H](F)[C@]56OC(=O)[C@@]7(CCC(C)(C)C[C@H]75)CC[C@@]6(C)[C@]4(C)CC[C@H]3C(C)(C)C2=O)c1
- IC50 [1]: 2.16 µM

SMILES: CC1(C)CC[C@@]23CC[C@]4(C)[C@](OC2=O)([C@H](F)C[C@@H]2[C@@]5(C)C/C(=C\c6ccc(-c7ccccn7)cc6)C(=O)C(C)(C)[C@@H]5CC[C@]24C)[C@@H]3C1
- IC50 [1]: 3.67 µM

SMILES: CC1(C)CC[C@@]23CC[C@]4(C)[C@](OC2=O)([C@H](F)C[C@@H]2[C@@]5(C)C/C(=C\c6cccc(F)c6)C(=O)C(C)(C)[C@@H]5CC[C@]24C)[C@@H]3C1
- IC50 [1]: 2.79 µM

SMILES: C[C@@H]1C[C@@H]([C@H](O)CC2CC(=O)NC(=O)C2)C(=O)[C@@H](C)C1 [CYCLOHEXIMIDE]
- IC50 (NIH3T3): 0.25 µM

SMILES: CC1(C)CC[C@@]23CC[C@]4(C)[C@](OC2=O)([C@H](F)C[C@@H]2[C@@]5(C)C/C(=C\c6ccc(Br)cc6)C(=O)C(C)(C)[C@@H]5CC[C@]24C)[C@@H]3C1
- IC50 [1]: 1.06 µM

SMILES: CC1(C)CC[C@@]23CC[C@]4(C)[C@](OC2=O)([C@H](F)C[C@@H]2[C@@]5(C)C/C(=C\c6ccccc6Br)C(=O)C(C)(C)[C@@H]5CC[C@]24C)[C@@H]3C1
- IC50 [1]: 2.51 µM

SMILES: CC1(C)CC[C@@]23CC[C@]4(C)[C@](OC2=O)([C@H](F)C[C@@H]2[C@@]5(C)C/C(=C\c6ccccn6)C(=O)C(C)(C)[C@@H]5CC[C@]24C)[C@@H]3C1
- IC50 [1]: 2.67 µM

SMILES: CC1(C)CC[C@@]23CC[C@]4(C)[C@](OC2=O)([C@H](F)C[C@@H]2[C@@]5(C)C/C(=C\c6cccc(Cl)c6)C(=O)C(C)(C)[C@@H]5CC[C@]24C)[C@@H]3C1
- Ki [2]: 1.49 µM
- Activity (Mus musculus [3]): Active
- Activity [4]: Non-Toxic
- Activity (Mus musculus [5]): Active
- Activity (Mus musculus [6]): Active
- Activity (Mus musculus [7]): 17.52 mM
- IC50 (NIH3T3): > 300 µM
- Activity (Mus musculus [8]): Active
- Km (Saccharomyces cerevisiae): 120 µM
- Activity (Mus musculus [9]): 24.39 mM
- IC50 [1]: 0.98 µM
- Activity (Mus musculus [10]): 23.51 mM
- Activity (Mus musculus [11]): 20.66 mM

SMILES: CC1(C)CC[C@@]23CC[C@]4(C)[C@](OC2=O)([C@H](F)C[C@@H]2[C@@]5(C)C/C(=C\c6ccc(Cl)cn6)C(=O)C(C)(C)[C@@H]5CC[C@]24C)[C@@H]3C1
- Ki [2]: 1.19 µM
- Activity (Mus musculus [3]): Active
- Activity [4]: Non-Toxic
- Activity (Mus musculus [5]): Active
- Activity (Mus musculus [6]): Active
- Activity (Mus musculus [7]): 13.13 mM
- IC50 (NIH3T3): > 300 µM
- Activity (Mus musculus [8]): Active
- Km (Saccharomyces cerevisiae): 120 µM
- Activity (Mus musculus [9]): 20.51 mM
- IC50 [1]: 0.72 µM
- Activity (Mus musculus [10]): 18.29 mM
- Activity (Mus musculus [11]): 17.45 mM

SMILES: CC1(C)CC[C@@]23CC[C@]4(C)[C@](OC2=O)([C@H](F)C[C@@H]2[C@@]5(C)C/C(=C\c6ccc(Cl)cc6)C(=O)C(C)(C)[C@@H]5CC[C@]24C)[C@@H]3C1
- Ki [2]: 0.88 µM
- Activity (Mus musculus [3]): Active
- Activity [4]: Non-Toxic
- Activity (Mus musculus [6]): Active
- Activity (Mus musculus [7]): 16.22 mM
- IC50 (NIH3T3): > 300 µM
- Activity (Mus musculus [8]): Active
- Km (Saccharomyces cerevisiae): 120 µM
- Activity (Mus musculus [9]): 23.59 mM
- IC50 [1]: 0.69 µM
- Activity (Mus musculus [10]): 20.25 mM
- Activity (Mus musculus [11]): 19.59 mM

SMILES: CC1(C)CC[C@@]23CC[C@]4(C)[C@](OC2=O)([C@H](F)C[C@@H]2[C@@]5(C)C/C(=C\c6ccc(C(F)(F)F)nc6)C(=O)C(C)(C)[C@@H]5CC[C@]24C)[C@@H]3C1
- IC50 [1]: 1.86 µM

SMILES: Cc1ccc(/C=C2\C[C@]3(C)[C@H]4C[C@@H](F)[C@]56OC(=O)[C@@]7(CCC(C)(C)C[C@H]75)CC[C@@]6(C)[C@]4(C)CC[C@H]3C(C)(C)C2=O)cc1
- IC50 [1]: 1.29 µM

SMILES: CC1(C)CC[C@@]23CC[C@]4(C)[C@](OC2=O)([C@H](F)C[C@@H]2[C@@]5(C)CC[C@H](O)C(C)(C)[C@@H]5CC[C@]24C)[C@@H]3C1
- IC50 [1]: 8.12 µM

SMILES: CC1(C)CC[C@]2(C(=O)O)CC[C@]3(C)C(=CC[C@@H]4[C@@]5(C)CC[C@H](O)C(C)(C)[C@@H]5CC[C@]43C)[C@@H]2C1 [OLEANOLIC_ACID]
- IC50 [1]: 2.41 µM

SMILES: COc1cccc(/C=C2\C[C@]3(C)[C@H]4C[C@@H](F)[C@]56OC(=O)[C@@]7(CCC(C)(C)C[C@H]75)CC[C@@]6(C)[C@]4(C)CC[C@H]3C(C)(C)C2=O)c1
- IC50 [1]: 3.29 µM

SMILES: CC1(C)CC[C@@]23CC[C@]4(C)[C@](OC2=O)([C@H](F)C[C@@H]2[C@@]5(C)CCC(=O)C(C)(C)[C@@H]5CC[C@]24C)[C@@H]3C1
- IC50 [1]: 16.7 µM

SMILES: C[C@H]1O[C@H](O[C@H]2[C@H](O)[C@@H](O)[C@@H](O[C@H]3[C@H](O)[C@@H](O)C(O)O[C@@H]3CO)O[C@@H]2CO)[C@H](O)[C@@H](O)[C@@H]1N[C@H]1C=C(CO)[C@@H](O)[C@H](O)[C@H]1O (stereo partly drawn) [ACARBOSE]
- Activity (Mus musculus [7]): 15.48 mM
- Activity (Mus musculus [9]): 22.44 mM
- IC50 [1]: 579 µM
- Activity (Mus musculus [10]): 20.41 mM
- Activity (Mus musculus [11]): 19.14 mM

SMILES: COc1ccc(/C=C2\C[C@]3(C)[C@H]4C[C@@H](F)[C@]56OC(=O)[C@@]7(CCC(C)(C)C[C@H]75)CC[C@@]6(C)[C@]4(C)CC[C@H]3C(C)(C)C2=O)c(OC)c1
- IC50 [1]: 1.92 µM

SMILES: COc1ccccc1/C=C1\C[C@]2(C)[C@H]3C[C@@H](F)[C@]45OC(=O)[C@@]6(CCC(C)(C)C[C@H]64)CC[C@@]5(C)[C@]3(C)CC[C@H]2C(C)(C)C1=O
- IC50 [1]: 2.74 µM

SMILES: CC1(C)CC[C@@]23CC[C@]4(C)[C@](OC2=O)([C@H](F)C[C@@H]2[C@@]5(C)C/C(=C\c6ccccc6Cl)C(=O)C(C)(C)[C@@H]5CC[C@]24C)[C@@H]3C1
- IC50 [1]: 1.54 µM
